Entries after “also recorded” stand apart in the source; their conditions may differ.
Legend:
[1] = tested on: primary human skeletal myotubes (MYOs); assay: IRES screening (Table 28), Gaussia luciferase LNP-oRNA in primary human skeletal myotubes (MYOs); settings: protein expression relative to positive control (SEQ ID NO 3282 = 1)
Text: (§1) Exemplary constructs included a 5′ enhanced intron element, a 5′ enhanced exon element, a putative IRES, a coding element encoding Gaussia Luciferase, a 3′ enhanced exon element, and a 3′ enhanced intron element.
(§2) Purified oRNA was nanoprecipitated with lipids to form LNP-oRNA constructs. LNPs were formulated first by creating empty lipid nanoparticles using a Precision Nanosystems Ignite instrument with a “NextGen” mixing chamber. Ethanol phase contained Lipid 39 from Table 10b, DSPC, cholesterol, and DMG-PEG 2000 (Avanti Polar Lipids, Inc., Alabaster, AL) at a molar ratio of 45:9:44:2 was combined with 50 mM sodium acetate buffer at pH 4.5. A 3:1 aqueous to ethanol mixing ratio was used. The empty LNPs were then dialyzed in 1 L of 1×PBS and exchanged 2 times over 18 hours. […] A 3:1 aqueous to empty lipid nanoparticle mixing ratio was used. The LNPs final ionizable lipid to RNA phosphate ratio was at 6.0.
(§3) Primary human skeletal myotubes (MYOs), primary human hepatocytes (PHHs), and activated primary human T cells (TCLs) were treated with formulated LNP-oRNA in triplicate. Protein expression in supernatant was assessed by luminescence measurements 48 hours following transfection.
(§4) Total luminescent signal was normalized across replicate plates to control for plate-wide differences between replicates due to flash assay readout timing. Plates with positive controls having <2× signal over background were excluded from analysis. Background was subtracted based on empty wells. Each test well replicate was normalized to its respective plate control and then the replicates were averaged.
(§5) Measured numbers are normalized to a control (caprine kobuvirus IRES, SEQ ID NO: 3282) and represented as a fold change.

[2] = tested on: activated primary human T cells (TCLs); assay: IRES screening (Table 28), Gaussia luciferase LNP-oRNA in activated primary human T cells (TCLs); settings: protein expression relative to positive control (SEQ ID NO 3282 = 1)
Text: as §1, §2, §3, §4, §5

[3] = tested on: primary human hepatocytes (PHHs); assay: IRES screening (Table 28), Gaussia luciferase LNP-oRNA in primary human hepatocytes (PHHs); settings: protein expression relative to positive control (SEQ ID NO 3282 = 1)
Text: as §1, §2, §3, §4, §5

[4] = tested on: splenic immune cells; assay: Cre circRNA LNP transfection of splenic immune cells in Ai9 Cre reporter mice (tdTomato); assay type: in vivo; settings: 0.5 mg/kg Cre circRNA LNP i.v., 48 hr, named by ionizable lipid, 0.5 mg/kg
Method: Circular RNAs encoding Cre recombinase (Cre) are encapsulated into lipid nanoparticles as previously described. Female, 6-8 week old B6.Cg-Gt(ROSA)26Sortm9(CAG-tdTomato)Hze/J (Ai9) mice were dosed with lipid nanoparticles at 0.5 mg/kg RNA intravenously. Fluorescent tdTomato protein was transcribed and translated in Ai9 mice upon Cre recombination, meaning circular RNAs have been delivered to and translated in tdTomato+ cells. After 48 hr, mice were euthanized and the spleens were harvested, processed into a single cell suspension, and stained with various fluorophore-conjugated antibodies for immunophenotyping via flow cytometry.
Ai9 mice (B6.Cg-Gt(ROSA)26Sortm9(CAG-tdTomato)Hze/J, female, 6-8 weeks, n=3 per group) were injected i.v. with 0.5 mg/kg Cre circRNA LNPs or PBS. Ai9 mice transcribe and translate the fluorescent reporter tdTomato upon Cre recombination; meaning cells which are tdTomato+ have successfully been transfected with Cre circRNA. […] Flow cytometry was performed using an Attune Nxt Flow Cytometer (Thermo).

## CCCCCCC(CCCC)C(=O)OCCCCCCN(CCO)CCCCCCOC(=O)C(CCCC)CCCCCC (centres unmarked) [Lipid 29]
[1]
  MYO AVG [Fold Change]: 0 Fold Change
[2]
  TCL AVG [Fold Change]: 0.01096 Fold Change
[3]
  PHH AVG [Fold Change]: 0.008274 Fold Change

## CCCCCCCCC(CCCCCC)C(=O)OCCCCCCN(CCCCCCOC(=O)C(CCCCCC)CCCCCCCC)CCCOC (centres unmarked) [Lipid 41]
[1]
  MYO AVG [Fold Change]: 0.0004126 Fold Change
[2]
  TCL AVG [Fold Change]: 0.02752 Fold Change
[3]
  PHH AVG [Fold Change]: 0.01033 Fold Change

## CCCCCCCCC(CCCCCC)C(=O)OCCCCCCN(CCCC#N)CCCCCCOC(=O)C(CCCCCC)CCCCCCCC (centres unmarked) [Lipid 35]
[1]
  MYO AVG [Fold Change]: 0 Fold Change
[2]
  TCL AVG [Fold Change]: 0.004133 Fold Change
[3]
  PHH AVG [Fold Change]: 0.005378 Fold Change

## CCCCCCCCCCC(CCCCCCCC)C(=O)OCCCCCCN(CCCO)CCCCCCOC(=O)C(CCCCCCCC)CCCCCCCCCC (centres unmarked) [Lipid 37]
[1]
  MYO AVG [Fold Change]: 0.03859 Fold Change
[2]
  TCL AVG [Fold Change]: 0.0237 Fold Change
[3]
  PHH AVG [Fold Change]: 0.2564 Fold Change

## CCCCCCCCCCCCC(CCCCCCCCCC)C(=O)OCCCCCCN(CCCCO)CCCCCCOC(=O)C(CCCCCCCCCC)CCCCCCCCCCCC (centres unmarked) [Lipid 27]
[1]
  MYO AVG [Fold Change]: 0.01866 Fold Change
[2]
  TCL AVG [Fold Change]: 0.02442 Fold Change
[3]
  PHH AVG [Fold Change]: 0.09892 Fold Change

## CCCCCCCCC(CCCCCC)C(=O)OCCCCCCN(CCCCCCOC(=O)C(CCCCCC)CCCCCCCC)CCCCOC(C)=O (centres unmarked) [Lipid 33]
[1]
  MYO AVG [Fold Change]: 0.3574 Fold Change
[2]
  TCL AVG [Fold Change]: 0.2088 Fold Change
[3]
  PHH AVG [Fold Change]: 0.4409 Fold Change

## CCCCCCCCC(CCCCCC)C(=O)OCCCCCCCCCCCCN(CCCCO)CCCCCCCCCCCCOC(=O)C(CCCCCC)CCCCCCCC (centres unmarked) [Lipid 23]
[1]
  MYO AVG [Fold Change]: 0 Fold Change
[2]
  TCL AVG [Fold Change]: 0.002417 Fold Change
[3]
  PHH AVG [Fold Change]: 0.0008387 Fold Change

## CCCCCCCCC(CCCCCC)C(=O)OCCCCCCN(CCCCCCOC(=O)C(CCCCCC)CCCCCCCC)CCCn1ccnc1 (centres unmarked) [Lipid 10a-26]
[4]
  splenic immune cells expressing tdTomato: significantly higher myeloid and T cell transfection compared with Lipid 93-S14; also recorded: effective at delivering circular RNAs to many splenic immune cell subsets

## CCCCCCCCC(CCCCCC)COC(=O)CCCCCCCCCN(CCCCO)CCCCCCCCCC(=O)OCC(CCCCCC)CCCCCCCC (centres unmarked) [Lipid 21]
[1]
  MYO AVG [Fold Change]: 0.02126 Fold Change
[2]
  TCL AVG [Fold Change]: 0.0748 Fold Change
[3]
  PHH AVG [Fold Change]: 0.1363 Fold Change

## CCCCC(CC)C(=O)OCCCCCCCCCN(CCCO)CCCCCCCCCOC(=O)C(CC)CCCC (centres unmarked) [Lipid 43]
[1]
  MYO AVG [Fold Change]: 0.11 Fold Change
[2]
  TCL AVG [Fold Change]: 0.2866 Fold Change
[3]
  PHH AVG [Fold Change]: 0.456 Fold Change

## CCCCCCC(CCCC)C(=O)OCCCCCCN(CCCCO)CCCCCCOC(=O)C(CCCC)CCCCCC (centres unmarked) [Lipid 42]
[1]
  MYO AVG [Fold Change]: 0.07198 Fold Change
[2]
  TCL AVG [Fold Change]: 0.09322 Fold Change
[3]
  PHH AVG [Fold Change]: 0.3425 Fold Change

## CCCCCCCCC(CCCCCC)C(=O)OCCCCCCN(CCCCCCOC(=O)C(CCCCCC)CCCCCCCC)CC(O)CC (centres unmarked) [Lipid 40]
[1]
  MYO AVG [Fold Change]: 0.199 Fold Change
[2]
  TCL AVG [Fold Change]: 0.05108 Fold Change
[3]
  PHH AVG [Fold Change]: 0.2391 Fold Change

## CCCCCCCCC(CCCCCC)C(=O)OCCCCCCCCCN(CCCCO)CCCCCCCCCOC(=O)C(CCCCCC)CCCCCCCC (centres unmarked) [Lipid 22]
[1]
  MYO AVG [Fold Change]: 0.009137 Fold Change
[2]
  TCL AVG [Fold Change]: 0.0309 Fold Change
[3]
  PHH AVG [Fold Change]: 0.0926 Fold Change

## CCCCCCC(CCCC)C(=O)OCCCCCCCCCN(CCCCO)CCCCCCCCCOC(=O)C(CCCC)CCCCCC (centres unmarked) [Lipid 25]
[1]
  MYO AVG [Fold Change]: 0.0738 Fold Change
[2]
  TCL AVG [Fold Change]: 0.452 Fold Change
[3]
  PHH AVG [Fold Change]: 0.1559 Fold Change

## CCCCCCCCC(CCCCCC)COC(=O)CCCCCN(CCCCCC(=O)OCC(CCCCCC)CCCCCCCC)CCCC(=O)OCC (centres unmarked) [Lipid 39]
[1]
  MYO AVG [Fold Change]: 0.0002919 Fold Change
[2]
  TCL AVG [Fold Change]: 0.003256 Fold Change
[3]
  PHH AVG [Fold Change]: 0.003901 Fold Change

## CCCCCCCCC(CCCCCC)C(=O)OCCCCCCN(CCCCCCOC(=O)C(CCCCCC)CCCCCCCC)CCCC(=O)OCC (centres unmarked) [Lipid 48]
[1]
  MYO AVG [Fold Change]: 0.1303 Fold Change
[2]
  TCL AVG [Fold Change]: 0.002803 Fold Change
[3]
  PHH AVG [Fold Change]: 0.4247 Fold Change

## CCCCCCCCCCCCCCCC(O)C(CO)N(CCCCCCOC(=O)C(CCCCCC)CCCCCCCC)CCCCCCOC(=O)C(CCCCCC)CCCCCCCC (centres unmarked) [Lipid 32]
[1]
  MYO AVG [Fold Change]: 0.2163 Fold Change
[2]
  TCL AVG [Fold Change]: 0.02974 Fold Change
[3]
  PHH AVG [Fold Change]: 0.3276 Fold Change

## CCCCCCCCC(CCCCCC)C(=O)OCCCCCCN(CCC#N)CCCCCCOC(=O)C(CCCCCC)CCCCCCCC (centres unmarked) [Lipid 47]
[1]
  MYO AVG [Fold Change]: 0.00246 Fold Change
[2]
  TCL AVG [Fold Change]: 0.02259 Fold Change
[3]
  PHH AVG [Fold Change]: 0.08942 Fold Change

## CCCCCCCCC(CCCCCC)COC(=O)CCCCCCCN(CCO)CCCCCCCC(=O)OCC(CCCCCC)CCCCCCCC (centres unmarked) [Lipid 46]
[1]
  MYO AVG [Fold Change]: 0.2249 Fold Change
[2]
  TCL AVG [Fold Change]: 0.2472 Fold Change
[3]
  PHH AVG [Fold Change]: 0.503 Fold Change

## CCCCCCC(CCCC)C(=O)OCCCCCCN(CCCO)CCCCCCOC(=O)C(CCCC)CCCCCC (centres unmarked) [Lipid 28]
[1]
  MYO AVG [Fold Change]: 0.01764 Fold Change
[2]
  TCL AVG [Fold Change]: 0.1126 Fold Change
[3]
  PHH AVG [Fold Change]: 0.1221 Fold Change

## CCCCCCCCC(CCCCCC)C(=O)OCCCCCCCCCCCCN(CCCO)CCCCCCCCCCCCOC(=O)C(CCCCCC)CCCCCCCC (centres unmarked) [Lipid 38]
[1]
  MYO AVG [Fold Change]: 0.07838 Fold Change
[2]
  TCL AVG [Fold Change]: 0.02186 Fold Change
[3]
  PHH AVG [Fold Change]: 0.2209 Fold Change

## CCCCCCCCCCCCC(CCCCCCCCCC)C(=O)OCCCCCCN(CCCO)CCCCCCOC(=O)C(CCCCCCCCCC)CCCCCCCCCCCC (centres unmarked) [Lipid 44]
[1]
  MYO AVG [Fold Change]: 0 Fold Change
[2]
  TCL AVG [Fold Change]: 0.01421 Fold Change
[3]
  PHH AVG [Fold Change]: 0.01602 Fold Change

## CCCCCCCCC(CCCCCC)C(=O)OCCCCCCN(CCCCCCOC(=O)C(CCCCCC)CCCCCCCC)CCCn1ccnc1C (centres unmarked) [Lipid 10a-27]
[4]
  splenic immune cells expressing tdTomato: significantly higher myeloid and T cell transfection compared with Lipid 93-S14; also recorded: effective at delivering circular RNAs to many splenic immune cell subsets

## CCCCCCC(CCCC)COC(=O)CCCCCCCN(CCCCO)CCCCCCCC(=O)OCC(CCCC)CCCCCC (centres unmarked) [Lipid 49]
[1]
  MYO AVG [Fold Change]: 0.1952 Fold Change
[2]
  TCL AVG [Fold Change]: 0.07252 Fold Change
[3]
  PHH AVG [Fold Change]: 0.6215 Fold Change

## CCCCCCCCC(CCCCCC)C(=O)OCCCCCCN(CCCCCCOC(=O)C(CCCCCC)CCCCCCCC)CCCCNC(C)=O (centres unmarked) [Lipid 36]
[1]
  MYO AVG [Fold Change]: 0 Fold Change
[2]
  TCL AVG [Fold Change]: 0.0009344 Fold Change
[3]
  PHH AVG [Fold Change]: 0 Fold Change

## CCCCC(CC)C(=O)OCCCCCCCCCN(CCCCO)CCCCCCCCCOC(=O)C(CC)CCCC (centres unmarked) [Lipid 24]
[1]
  MYO AVG [Fold Change]: 0 Fold Change
[2]
  TCL AVG [Fold Change]: 0.003111 Fold Change
[3]
  PHH AVG [Fold Change]: 0.0000246 Fold Change

## CCCCCCCCC(CCCCCC)C(=O)OCCCCCCN(CCCCCCOC(=O)C(CCCCCC)CCCCCCCC)C(CC)CO (centres unmarked) [Lipid 31]
[1]
  MYO AVG [Fold Change]: 0.5881 Fold Change
[2]
  TCL AVG [Fold Change]: 0.4863 Fold Change
[3]
  PHH AVG [Fold Change]: 0.6943 Fold Change

## CCCCCCCCC(CCCCCC)C(=O)OCCCCCCN(CCCCCCOC(=O)C(CCCCCC)CCCCCCCC)CC(O)CO (centres unmarked) [Lipid 30]
[1]
  MYO AVG [Fold Change]: 0.1967 Fold Change
[2]
  TCL AVG [Fold Change]: 0.373 Fold Change
[3]
  PHH AVG [Fold Change]: 0.3984 Fold Change

## CCCCCCCCCCC(CCCCCCCC)C(=O)OCCCCCCN(CCCCO)CCCCCCOC(=O)C(CCCCCCCC)CCCCCCCCCC (centres unmarked) [Lipid 26]
[1]
  MYO AVG [Fold Change]: 0.002759 Fold Change
[2]
  TCL AVG [Fold Change]: 0 Fold Change
[3]
  PHH AVG [Fold Change]: 0.01252 Fold Change

## CCCCCCCCC(CCCCCC)C(=O)OCCCCCCN(CCCCCCOC(=O)C(CCCCCC)CCCCCCCC)CCCC(=O)OCC (centres unmarked) [Lipid 34]
[1]
  MYO AVG [Fold Change]: 0.2168 Fold Change
[2]
  TCL AVG [Fold Change]: 0.2638 Fold Change
[3]
  PHH AVG [Fold Change]: 0.4644 Fold Change
